Test results from US11077100B2, “Tetrahydroquinoline derivatives as P2X7 receptor antagonists” (RaQualia Pharma Inc., priority 2017, dated 2021).

Columns and labels:
[1] = target: rat P2X7 (Rattus norvegicus (Rat), UniProt Q64663); assay: Rat P2X7 functional assay (Ca2+ influx, Fluo-4, FDSS); type: cell-based; conditions: HEK293 cells stably expressing rat P2X7; BzATP final 10 microM; 7-point dose-response; read-out: Antagonistic activities with respect to the rat P2X7 receptor (IC50)
Procedure, shortened: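 HEK293 cells stably expressing rat P2X7 (5,000/well, plated 24 h before) loaded with Fluo-4; compounds preincubated 10 min at room temperature, then Ca2+ rise after 10 microM BzATP (final) read on FDSS (480/540 nm). IC50 from 7-point curves, duplicate wells.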

[2] = target: human P2X7 (Homo sapiens (Human), UniProt Q99572); assay: Human P2X7 functional assay (Ca2+ influx, Fluo-4, FDSS); type: cell-based; conditions: antagonistic activity with respect to the human P2X7 receptor; BzATP final concentration 80 microM
human P2X7, sequence (Q99572 whole entry): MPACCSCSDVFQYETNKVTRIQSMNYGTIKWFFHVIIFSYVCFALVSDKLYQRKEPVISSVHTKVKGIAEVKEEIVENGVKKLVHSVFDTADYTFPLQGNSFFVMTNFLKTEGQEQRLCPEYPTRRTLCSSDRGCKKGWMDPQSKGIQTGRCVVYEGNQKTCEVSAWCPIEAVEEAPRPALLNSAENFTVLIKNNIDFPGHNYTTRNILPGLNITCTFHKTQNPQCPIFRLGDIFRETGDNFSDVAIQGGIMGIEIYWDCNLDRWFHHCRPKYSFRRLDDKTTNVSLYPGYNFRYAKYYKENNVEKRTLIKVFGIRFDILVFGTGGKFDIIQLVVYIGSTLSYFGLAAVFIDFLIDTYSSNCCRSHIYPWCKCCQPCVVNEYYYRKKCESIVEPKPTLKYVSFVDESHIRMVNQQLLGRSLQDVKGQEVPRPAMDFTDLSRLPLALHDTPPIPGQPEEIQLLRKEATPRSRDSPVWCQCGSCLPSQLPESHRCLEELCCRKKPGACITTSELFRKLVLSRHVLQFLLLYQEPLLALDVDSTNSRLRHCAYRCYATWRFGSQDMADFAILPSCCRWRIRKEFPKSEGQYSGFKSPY
Procedure, shortened: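 HEK293 cells stably expressing C-terminally FLAG-tagged human P2X7, loaded with Fluo-4. Compounds were preincubated for 10 min at room temperature, then 80 μM BzATP (final) was added and Ca2+ fluorescence read at 540 nm (480 nm excitation) by FDSS. IC50 values come from 7-point curves, duplicate wells.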

rat P2X7, sequence (Q64663 whole entry): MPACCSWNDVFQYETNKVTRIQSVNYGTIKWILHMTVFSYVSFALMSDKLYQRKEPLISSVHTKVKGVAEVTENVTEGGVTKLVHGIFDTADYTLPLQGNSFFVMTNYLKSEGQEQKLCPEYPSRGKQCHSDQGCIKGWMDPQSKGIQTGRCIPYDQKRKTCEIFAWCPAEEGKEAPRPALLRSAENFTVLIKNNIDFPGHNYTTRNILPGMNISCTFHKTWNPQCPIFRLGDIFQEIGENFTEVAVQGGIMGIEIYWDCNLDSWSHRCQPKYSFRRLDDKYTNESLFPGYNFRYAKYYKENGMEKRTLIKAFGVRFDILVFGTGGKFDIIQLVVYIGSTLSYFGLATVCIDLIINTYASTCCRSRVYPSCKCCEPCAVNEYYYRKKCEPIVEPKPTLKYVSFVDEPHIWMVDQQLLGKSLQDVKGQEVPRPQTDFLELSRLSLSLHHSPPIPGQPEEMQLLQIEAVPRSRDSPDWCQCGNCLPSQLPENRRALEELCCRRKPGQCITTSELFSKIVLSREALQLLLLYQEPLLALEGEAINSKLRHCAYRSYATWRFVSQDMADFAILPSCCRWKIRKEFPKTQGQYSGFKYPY

Structure (SMILES)	IC50 [1] [nM]	IC50 [2] [nM]
O=C1NC[C@]2(CC[C@@](F)(C(=O)NCc3ccc(Cl)cc3Cl)c3cccnc32)O1 [Example 291, (5S,5′S)-N-(2,4-dichlorobenzyl)-5′-fluoro-2-oxo-6′,7′-dihydro-5′H-spiro [oxazolidine-5,8′-quinoline]-5′-carboxamide]	< 1000	101 to 300
O=C(NCc1c(F)cc(F)cc1Cl)[C@]1(F)CC[C@@](O)(CO)c2ncccc21 [Example 321, (5S,8S)-N-(2-chloro-4,6-difluorobenzyl)-5-fluoro-8-hydroxy-8-(hydroxymethyl)-5,6,7,8-tetrahydroquinoline-5-carboxamide]	< 1000	< 50
O=C(NCc1c(Cl)cc(Cl)cc1C(F)F)[C@]1(F)CC[C@H](O)c2ncccc21 [Example 149, (5S,8S)-N-(2,4-dichloro-6-(difluoromethyl)benzyl)-5-fluoro-8-hydroxy-5,6,7,8-tetrahydroquinoline-5-carboxamide]	< 1000	< 50
O=C(NCc1cccc(C(F)(F)F)c1Cl)C1(F)CCC(O)c2ncccc21 (centres unmarked) [Example 19, N-(2-chloro-3-(trifluoro-methyl)benzyl)-5-fluoro-8-hydroxy-5,6,7,8-tetrahydro-quinoline-5-carboxamide]	< 1000	< 50
O=C(NCc1c(F)cc(Cl)cc1Cl)[C@]1(F)CC[C@@](O)(CO)c2ncccc21 [Example 310, (5S,8S)-N-(2,4-dichloro-6-fluorobenzyl)-5-fluoro-8-hydroxy-8-(hydroxymethyl)-5,6,7,8-tetrahydroquinoline-5-carboxamide]	< 1000	< 50
O=C1CC[C@](F)(C(=O)NCc2cccc(C(F)(F)F)c2Cl)c2cccnc21 [Example 246, (R)-N-(2-chloro-3-(trifluoromethyl)benzyl)-5-fluoro-8-oxo-5,6,7,8-tetrahydroquinoline-5-carboxamide]	< 1000	< 50
O=C(NCc1ccc(F)cc1Cl)[C@]1(F)CC[C@@](O)(CO)c2ncccc21 [Example 306, (5S,8S)-N-(2-chloro-4-fluorobenzyl)-5-fluoro-8-hydroxy-8-(hydroxymethyl)-5,6,7,8-tetrahydroquinoline-5-carboxamide]	< 1000	< 50
COCc1cc(Cl)cc(Cl)c1CNC(=O)C1CCC(O)c2ncccc21 (centres unmarked) [Example 10, N-(2,4-dichloro-6-(methoxy-methyl)benzyl)-8-hydroxy-5,6,7,8-tetrahydro-quinoline-5-carboxamide]	< 1000	< 50
O=C(NCc1ccc(Br)cc1Cl)[C@]1(F)CC[C@H](O)c2ncccc21 [Example 154, (5S,8S)-N-(4-bromo-2-chlorobenzyl)-5-fluoro-8-hydroxy-5,6,7,8-tetrahydroquinoline-5-carboxamide]	< 1000	< 50
O=C(NC1CC1c1ccc(Cl)cc1Cl)[C@]1(F)CC[C@H](O)c2ncccc21 (stereo partly drawn) [Example 238, (5S,8S)-N-((trans)-2-(2,4-dichlorophenyl)cyclopropyl)-5-fluoro-8-hydroxy-5,6,7,8-tetrahydroquinoline-5-carboxamide]	< 1000	< 50
C[C@]1(O)CC[C@@](F)(C(=O)NCC2(N3CCOCC3)CCCCC2)c2cccnc21 [Example 274, (5S,8S)-5-fluoro-8-hydroxy-8-methyl-N-((1-morpholinocyclohexyl)methyl)-5,6,7,8-tetrahydroquinoline-5-carboxamide]	< 1000	< 50
CC(CNC(=O)[C@]1(F)CC[C@H](O)c2ncccc21)c1ccc(Cl)cc1 (stereo partly drawn) [Example 234, (5S,8S)-N-(2-(4-chlorophenyl)propyl)-5-fluoro-8-hydroxy-5,6,7,8-tetrahydroquinoline-5-carboxamide]	< 1000	301 to 1000
O=C(NCc1ccccc1Cl)[C@]1(F)CC[C@H](O)c2ncccc21 [Example 195, (5S,8S)-N-(2-chlorobenzyl)-5-fluoro-8-hydroxy-5,6,7,8-tetrahydroquinoline-5-carboxamide]	< 1000	< 50
